One data set concerns 5′-(AAAAAAAAAAAAAA)-3′. The data set can be described thus: Tm of duplex (spectrophotometric melting curves). It counts as binding. Particulars: vs RNA 5′-(AAAAAAAAAAAAAA)-3′; 10 mM Na2HPO4 pH 7.0, 100 mM NaCl, 0.1 mM EDTA. On the procedure: (§1) Thermostability of oligonucleotides containing monomers of formula V, X, Y and Z^T, Z^U, Z^G, Z^C, Z^A, Z^MeC. The thermostability of the LNA modified oligonucleotides were determined spectrophotometrically using a spectrophotometer equipped with a thermoregulated Peltier element. Hybridisation mixtures of 1 ml were prepared containing either of 3 different buffers (10 mM Na2HPO4, pH 7.0, 100 mM NaCl, 0.1 mM EDTA; 10 mM Na2HPO4 pH 7.0, 0.1 mM EDTA; 3M tetramethylammoniumchlorid (TMAC), 10 mM Na2HPO4, pH 7.0, 0.1 mM EDTA) and equimolar (1 μM or 1.5 μM) amounts of the different LNA modified oligonucleotides and their complementary or mismatched DNA or RNA oligonucleotides. Identical hybridisation mixtures using the unmodified oligonucleotides were prepared as references. The Tm's were obtained as the first derivative of the melting curves. FIG. 2 illustrates the monomeric LNAs used. The nomenclature V, X, Y and Z^T, Z^U, Z^G, Z^C, Z^A, Z^MeC refer to structures V, X, Y and Z of FIG. 2. In the tables, the nucleobases of the LNA monomers are indicated. Furthermore, for the thio and amino variants of the LNA structure Z of the last two tables, the nomenclature used is, e.g., Z^TS and Z^TNH, respectively.

The subject of the next data set is 5′-(AAAAAAGAAAAAAA)-3′. In words: Tm of duplex (spectrophotometric melting curves). It counts as binding. As to conditions: vs RNA 5′-(AAAAAAGAAAAAAA)-3′ (mismatch); 10 mM Na2HPO4 pH 7.0, 100 mM NaCl, 0.1 mM EDTA. On the procedure: as §1
A further data set relates to 5′-d(AAAAAAAAAAAAAA)-3′. The data set can be described thus: Tm of duplex (spectrophotometric melting curves). It is filed as binding. As to conditions: vs 5′-d(AAAAAAAAAAAAAA)-3′; 10 mM Na2HPO4 pH 7.0, 100 mM NaCl, 0.1 mM EDTA. As for the experimental part:
as §1

The next data set has as its system 5′-d(AAAACAAAA)-3′. The data set can be described thus: Tm of duplex (spectrophotometric melting curves). It counts as binding. As to conditions: vs 5′-d(AAAACAAAA)-3′ (mismatch); 10 mM Na2HPO4 pH 7.0, 100 mM NaCl, 0.1 mM EDTA. As for the experimental part: as §1
The next data set deals with 5′-d(AAAAGAAAA)-3′. In words: Tm of duplex (spectrophotometric melting curves). It counts as binding. Particulars: vs 5′-d(AAAAGAAAA)-3′ (mismatch); 10 mM Na2HPO4 pH 7.0, 100 mM NaCl, 0.1 mM EDTA. On the procedure:
as §1

Another data set concerns 5′-d(AAAATAAAA)-3′. The data set can be described thus: Tm of duplex (spectrophotometric melting curves). It counts as binding. As to conditions: vs 5′-d(AAAATAAAA)-3′ (mismatch); 10 mM Na2HPO4 pH 7.0, 100 mM NaCl, 0.1 mM EDTA. On the procedure:
as §1

Another data set concerns δ opioid receptor. In words: Warm water tail flick test, [D-Ala2]deltorphin-induced antinociception. It counts as in vivo, rats. Particulars: 60 μg, i.th, saline-treated controls, 52° C. water. As for the experimental part:
Blockade by Antisense Locked Nucleic Acids (LNA) of [D-Ala2]Deltorphin-Induced Antinociception in the Warm Water Tail Flick Test in Conscious Rats. Male Sprague-Dawley rats (300 g) were implanted with an intrathecal (i.th). polyethylene catheter and allowed to recover for at least 5 days before start of injections (including controls). The antisense LNA compounds (12.5 and 2.5 μg per injection) were administered in a 5 μl volume twice-daily (08.00 and 17.00 h) for 3 days. No signs of non-specific effects or toxicity could be detected, as shown by observations of locomotor behavior and measurements of body weight. The day after the last injection the rats were injected with [D-Ala2]deltorphin (60 μg, i.th) and tested in the warm water (52° C.) tail flick test for δ opioid receptor-mediated antinociception. Data are presented in FIG. 14 as medians based on 6-8 animals per group (data converted to percent maximum possible response, % MPE). Statistical analyses were performed by means of Kruskal-Wallis 1-way ANOVA by ranks, followed by comparisons of treatments versus control.
On the technique in general: Hot-plate and tail-flick tests time the reaction to a heat stimulus.

Data set [1] relates to Arabidopsis mRNA, AMV Reverse Transcriptase. In words: First strand cDNA synthesis priming. It is filed as biochemical. As to conditions: 42° C., 2 hours, vs anchored poly dT control. As for the experimental part: First Strand cDNA Synthesis Using Poly dT Primers Containing LNA T monomers. Reactions were set up in order to test the ability of poly dT primers containing LNA T residues to prime 1st strand cDNA synthesis. The following poly dT primers were tested (LNA monomers are in bold): […]
Reactions were set up as follows for each of the primers above: […]
This mix was then heated to 75° C. for 3 min and then allowed to cool at room temperature for at least 10 min.
The following was then added to each of the reactions:
The reactions were incubated at 42° C. for 2 hours. The reactions were then heated at 95° C. for 3 min before loading onto a 6% polyacrylamide 7M urea gel. The gel was fixed in 10% acetic acid/10% methanol before transferring to 3 MM paper and drying. The dried gel was exposed to Kodak Biomax autoradiography film overnight.

For data set [2], the system named is terminal deoxynucleotidyl transferase (TdT). In words: Tailing of primers with dATP. It counts as biochemical. Particulars: 4 pmol primer, 25 U TdT, 16 μM dATP, 90 min, 37° C. As for the experimental part: The ability of terminal deoxynucleotidyl transferase (TdT) to tail LNA modified oligonucleotides depends on the design of the oligomer. The following 15mer primers and a mixture of 8 to 32 base oligonucleotide markers were 5′ end labelled with [γ^33P] ATP and T4 polynucleotide kinase (where LNA monomers are in bold):
Reactions were boiled for 5 min after labelling to remove any PNK activity. Four picomoles of each labelled primer, 25 U terminal deoxynucleotidyl transferase and 16 μM dATP were incubated in 25 μl 100 mM cacodylate buffer pH 7.2, 2 mM CoCl2 and 0.2 mM 2-mercapto-ethanol for 90 min at 37° C. The reactions were stopped by the addition of formamide stop solution and the reaction products run on a 19% polyacrylamide 7 M urea gel with the labelled markers. Autoradiography using Biomax film was carried out on the dry gel. […] Primer PZ2 (lane 5) was not extended under these reaction conditions. We conclude that the TdT enzyme will tolerate LNA monomers within the oligonucleotide, but not at the extreme 3′ end.

The target of a further data set is Exonuclease III (Escherichia coli, UniProt P09030).
The test system of data set [3] is MCF-7 human breast cancer cells.
Data set [4] deals with human MCF-7 breast cancer cells.
In data set [5] the test system is MCF-7 human breast cancer cells. This is another data set of the same source.

V = bicyclic LNA-type nucleotide of structure V in the publication's (LNA marked in bold); l = locked nucleic acid (LNA); d = 2'-deoxy (DNA)

With “5′-d(TTTTTTTTTTTTTT)-3′ (SEQ ID NO: 113): fully modified poly-T oligonucleotide of structure V (sugars from the 5' end V13 d1, backbone not given here)”, the “Tm (° C.) Na2HPO4/NaCl/EDTA” value with 5′-(AAAAAAAAAAAAAA)-3′ is 42 °C; in the data set with 5′-(AAAAAAGAAAAAAA)-3′ it was 37 °C; with 5′-d(AAAAAAAAAAAAAA)-3′, below 10 °C.

As for “5′-d(TTTTTTTTTT)-3′ (SEQ ID NO: 95): almost fully modified LNA oligomer containing exclusively Z^T (52-56) (LNA Z^T monomers)”, the “Tm (° C.) Na2HPO4/NaCl/EDTA” value in the data set on 5′-(AAAAAAAAAAAAAA)-3′ is 70 °C; in the data set with 5′-d(AAAAAAAAAAAAAA)-3′, 80 °C; in the data set with 5′-d(AAAACAAAA)-3′, 63 °C; in the data set on 5′-d(AAAAGAAAA)-3′, 55 °C; in the data set on 5′-d(AAAATAAAA)-3′, 65 °C.

Take `CC(C)[C@H](NC(=O)[C@H](CCC(=O)O)NC(=O)[C@H](Cc1ccccc1)NC(=O)[C@@H](C)NC(=O)[C@@H](N)Cc1ccc(O)cc1)C(=O)N[C@H](C(=O)NCC(=O)O)C(C)C` [deltorphin, [D-Ala2]deltorphin]: in the data set with δ opioid receptor, the antinociceptive effect result is given as “robust antinociceptive effect”.

With “RTZ 5: poly dT primer 5′-TTT TTT TTT T-3′ (SEQ ID NO: 69) containing LNA T monomers (TTTTTTTTTT; LNA T monomers)”, in data set [1], the “priming of 1st strand cDNA synthesis” value was “yield was significantly lower than that produced with the control oligo primer”.

Regarding “PZ2: 5′-GC ATG TGC TGG AGA T-3′ (SEQ ID NO: 13), single LNA monomer at the 3′ end (DNA GCATGTGCTGGAGAT; sugars from the 5' end d14 l1, backbone and methylation of C not given here)”, the tail length result in [2] is listed as “not extended”. Also, the “full length product left after the 5 minute incubation” value with Exonuclease III (10 Units Exonuclease III, 37° C., 5 min, primer hybridised to template) was 62%. Also, the “full length band, % of the signal” value with Exonuclease III (in the absence of the enzyme) was 96%.

With “AL16: LNA oligo 5′-d(TGT GTG AAA TTG TTA T)-3′ (SEQ ID NO:57); also fluorescein/FITC-labelled (DNA TGTGTGAAATTGTTAT; LNA-containing, positions not given here, fluorescein label)”, the “added radioactivity associated with cellular material” value in data set [3] is given as “approximately 0.8%”. In addition, in data set [4], the intracellular localisation entry is on record as “predominantly was localised in the nuclei of the cells”. In addition, the “number of green fluorescent cells after additional 3 days” value in [5] was “appeared unaltered”.

For the origin of these results see US8080644B2, “Oligonucleotide analogues” (Exiqon A/S, priority 1997, dated 2011).
